Data taken from PMC5166568, “Flexible synthesis of cationic peptide–porphyrin derivatives for light-triggered drug delivery and photodynamic therapy” (Organic & Biomolecular Chemistry, 2016).

Columns and labels:
MC28 cells [1] = test system: MC28 cells
MC28 cells [2] = test system: MC28 cells; remark: listed apart in the source
MC28 cells [3] = type: cell-based, rat

Compound | LD50 PDT (MC28 cells [1]; 18 h) [nM] | LD50 dark (MC28 cells [1]; 24 h) | cellular uptake (MC28 cells [2]) | subcellular localisation (MC28 cells [2]) | reduction in viability using saporin alone (MC28 cells [3])
N=C(N)NCCC[C@H](NC(=O)CN)C(=O)N[C@@H](CCCCN)C(=O)N[C@@H](CCCCN)C(=O)N[C@@H](CCCNC(=N)N)C(=O)N[C@@H](CCCNC(=N)N)C(=O)N[C@@H](CCC(N)=O)C(=O)N[C@@H](CCCNC(=N)N)C(=O)N[C@@H](CCCNC(=N)N)C(=O)N[C@@H](CCCNC(=N)N)C(=O)NCC(=O)N[C@@H](Cc1ccc(O)cc1)C(=O)N[C@@H](CCCCN)C(=O)N[C@@H](CSC1CC(=O)N(CCC(=O)Nc2ccc(-c3c4nc(c(-c5ccccc5)c5ccc([nH]5)c(-c5ccccc5)c5nc(c(-c6ccccc6)c6ccc3[nH]6)C=C5)C=C4)cc2)C1=O)C(N)=O (some centres unmarked) [Compound 20] | 94 ± 6 | ≫1 μM | efficient uptake | Endolysosomal localisation | 
saporin |  |  |  |  | approximately 10%
